# Results: patent publication US20250034151A1, “WEE1 INHIBITOR, PREPARATION THEREFOR, AND USE THEREOF” (JIANGSU TASLY DIYI PHARMACEUTICAL CO., LTD., priority 2022, published 2025)
# Assays:
# [1] = Liver microsomes in vitro stability (human); assay type: in vitro ADME; settings: read-out: T1/2/min (H)
# Procedure: 1. Preparation of Working Solution:
# Microsomes were taken out from the −80° C. refrigerator, rapidly melted in a 37° C. water bath and placed on ice until ready to use. The test article was diluted with DMSO to prepare a 10 mM stock solution, and then diluted with acetonitrile to a 0.5 mM secondary stock solution. […] NADPH was diluted with Buffer C to a working solution of 6 mM for the starter solution. An acetonitrile solution containing an internal standard was prepared as the precipitant, and Verapamil-HCl was chosen as the internal standard at a concentration of 4 ng/ml.
# 2. Experimental Procedure:
# A round-bottom well plate was taken, noted as the reaction plate, and the prepared working solution for each compound was dispensed into the well plate according to the number of replicates and time points (0 h samples were also added to the reaction plate), 30 μL/well; the plate was incubated at 37° C. for 10 min. A separate plate with pointed bottom wells, noted as a precipitation plate, was added with 135 μL precipitant per well; 0 h samples were transferred to the plate after 10 min incubation and 15 μL of starter solution was added; the plate was placed on ice before centrifugation.
# The diluted starter solution was added in sufficient quantity to the dispensing plate to facilitate the multichannel pipette aspiration operation.
# The reaction was carried out on a warm incubation shaker and 15 μL of starter solution/sample is added to the plate using a multichannel pipette. The reaction was mixed with a slight shake to initiate the reaction, which was accurately timed and recorded using a timer. In general, samples with shorter reaction times are initiated late and vice versa early, allowing sufficient time for multiple plate manipulation to terminate the reaction. For example, as for the four experiments of 5, 15, 30, and 60 min, the 60 min experiment was started first, and the 5 min experiment was started later, so as to leave sufficient time for the 5 min group.
# After the reaction time had elapsed, all the solution in the plate was aspirated using the multichannel pipette and added to the precipitation plate to terminate the reaction at that point in time. After all reactions had been terminated, the plates were shaken for ten minutes on a plate shaker at 600 rpm to precipitate the protein. The plate was centrifuged at 4° C. for 15 minutes at maximum rpm. 80 μL of supernatant was taken, 320 μL of pure water was added and mixed for LC-MS analysis.
# [2] = Liver microsomes in vitro stability (mouse); assay type: in vitro ADME; settings: read-out: T1/2/min
# Wee1 protein = biological target: T1, Wee1 protein (Homo sapiens, UniProt P30291); assay: Binding of compound to Wee1 protein and Tracer 178 by TR-FRET (Wee1 kinase inhibitory activity); settings: 15 nM WEE1, 50 nM Tracer 178, read-out: IC50 (inhibitory activity against Wee1 kinase)
# T1 construct: purchased Thermo Fisher PR7373A
# T1 sequence (P30291 whole entry): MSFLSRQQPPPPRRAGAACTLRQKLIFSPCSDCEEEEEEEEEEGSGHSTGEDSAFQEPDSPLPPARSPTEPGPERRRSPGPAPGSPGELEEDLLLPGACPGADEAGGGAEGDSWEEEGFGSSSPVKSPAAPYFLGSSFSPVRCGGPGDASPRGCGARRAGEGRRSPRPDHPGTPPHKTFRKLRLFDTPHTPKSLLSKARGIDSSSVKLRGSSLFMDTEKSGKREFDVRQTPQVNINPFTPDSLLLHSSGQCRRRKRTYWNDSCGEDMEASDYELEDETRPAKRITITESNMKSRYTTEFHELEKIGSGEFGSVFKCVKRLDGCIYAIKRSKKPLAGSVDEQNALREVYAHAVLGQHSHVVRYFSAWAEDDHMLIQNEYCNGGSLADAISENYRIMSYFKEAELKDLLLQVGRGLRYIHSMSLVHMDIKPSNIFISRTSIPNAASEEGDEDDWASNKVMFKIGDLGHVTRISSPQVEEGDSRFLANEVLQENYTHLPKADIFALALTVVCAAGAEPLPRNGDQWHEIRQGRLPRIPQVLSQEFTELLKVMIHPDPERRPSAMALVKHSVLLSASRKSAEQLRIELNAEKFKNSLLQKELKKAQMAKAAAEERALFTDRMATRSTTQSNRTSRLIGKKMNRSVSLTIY
# CYP2C8 = biological target: T2, CYP2C8 (Homo sapiens, UniProt P10632); assay: in vitro; settings: CYP2C8 enzyme, pH 7.4, probe DBOMF (0.001 mM)
# T2 sequence (P10632 1-490): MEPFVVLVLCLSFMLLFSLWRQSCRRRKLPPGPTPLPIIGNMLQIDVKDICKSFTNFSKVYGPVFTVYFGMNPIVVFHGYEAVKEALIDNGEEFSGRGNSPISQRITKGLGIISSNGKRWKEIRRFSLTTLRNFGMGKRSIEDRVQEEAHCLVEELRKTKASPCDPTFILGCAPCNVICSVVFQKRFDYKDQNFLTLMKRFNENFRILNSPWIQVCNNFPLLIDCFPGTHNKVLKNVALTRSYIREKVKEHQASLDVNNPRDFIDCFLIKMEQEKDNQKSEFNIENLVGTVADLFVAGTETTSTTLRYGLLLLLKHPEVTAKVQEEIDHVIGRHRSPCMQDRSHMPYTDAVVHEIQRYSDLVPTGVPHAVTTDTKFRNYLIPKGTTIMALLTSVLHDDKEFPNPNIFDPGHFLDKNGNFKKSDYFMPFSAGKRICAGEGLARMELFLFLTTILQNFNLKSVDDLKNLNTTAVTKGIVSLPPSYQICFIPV
# CYP2D6 = CYP2D6 (Homo sapiens, UniProt P10635); assay: in vitro; settings: CYP2D6 enzyme, pH 7.4, probe EOMCC (0.01 mM)
# Sequence of CYP2D6 (P10635 whole entry, species assumed): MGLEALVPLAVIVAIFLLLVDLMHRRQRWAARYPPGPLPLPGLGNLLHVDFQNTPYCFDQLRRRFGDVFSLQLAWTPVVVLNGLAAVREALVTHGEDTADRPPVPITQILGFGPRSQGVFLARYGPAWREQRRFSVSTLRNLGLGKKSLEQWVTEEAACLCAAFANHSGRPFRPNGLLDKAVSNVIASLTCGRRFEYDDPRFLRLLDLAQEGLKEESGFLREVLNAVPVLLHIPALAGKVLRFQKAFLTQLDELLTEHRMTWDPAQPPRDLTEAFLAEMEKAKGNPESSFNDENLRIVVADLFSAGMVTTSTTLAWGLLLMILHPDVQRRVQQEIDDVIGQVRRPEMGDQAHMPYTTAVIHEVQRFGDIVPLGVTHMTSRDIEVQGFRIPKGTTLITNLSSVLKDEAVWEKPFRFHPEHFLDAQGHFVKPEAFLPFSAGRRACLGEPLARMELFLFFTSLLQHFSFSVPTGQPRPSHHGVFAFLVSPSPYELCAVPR
# CYP1A2 = biological target: T3, CYP1A2 (Homo sapiens, UniProt P05177); assay: in vitro; settings: CYP1A2 enzyme, pH 7.4, probe EOMCC (0.01 mM)
# T3 sequence (P05177 1-516): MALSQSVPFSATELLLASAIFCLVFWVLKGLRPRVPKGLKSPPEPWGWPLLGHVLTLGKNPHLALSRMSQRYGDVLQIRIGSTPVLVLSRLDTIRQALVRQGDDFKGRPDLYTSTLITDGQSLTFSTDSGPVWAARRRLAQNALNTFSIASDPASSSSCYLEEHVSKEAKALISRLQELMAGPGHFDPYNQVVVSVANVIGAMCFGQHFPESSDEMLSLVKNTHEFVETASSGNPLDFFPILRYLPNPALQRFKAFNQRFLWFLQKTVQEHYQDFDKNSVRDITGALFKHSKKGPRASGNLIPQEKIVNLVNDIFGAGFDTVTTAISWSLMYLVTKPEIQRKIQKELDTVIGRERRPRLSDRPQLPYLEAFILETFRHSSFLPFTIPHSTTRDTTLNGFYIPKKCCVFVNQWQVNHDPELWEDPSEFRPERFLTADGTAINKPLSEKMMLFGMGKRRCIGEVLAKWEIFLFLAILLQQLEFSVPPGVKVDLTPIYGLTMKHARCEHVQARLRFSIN
# CYP2C9 = CYP2C9 (Homo sapiens, UniProt P11712); assay: in vitro; settings: CYP2C9 enzyme, pH 7.4, probe BOMCC (0.01 mM)
# Sequence of CYP2C9 (P11712 whole entry, species assumed): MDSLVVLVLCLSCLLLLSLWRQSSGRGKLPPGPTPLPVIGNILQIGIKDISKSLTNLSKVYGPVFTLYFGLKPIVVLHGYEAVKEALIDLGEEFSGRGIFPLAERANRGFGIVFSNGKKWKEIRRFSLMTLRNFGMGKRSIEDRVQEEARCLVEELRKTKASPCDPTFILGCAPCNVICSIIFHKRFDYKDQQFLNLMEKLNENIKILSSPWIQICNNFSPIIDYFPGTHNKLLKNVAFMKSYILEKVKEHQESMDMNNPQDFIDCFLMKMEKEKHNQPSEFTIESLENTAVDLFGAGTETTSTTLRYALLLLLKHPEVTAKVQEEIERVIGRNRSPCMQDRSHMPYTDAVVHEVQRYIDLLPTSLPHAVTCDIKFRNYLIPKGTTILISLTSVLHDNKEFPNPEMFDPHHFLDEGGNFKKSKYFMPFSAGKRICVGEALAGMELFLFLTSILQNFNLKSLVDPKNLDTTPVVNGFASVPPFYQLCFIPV
# CYP2C19 = CYP2C19 (Homo sapiens, UniProt P33261); assay: in vitro; settings: CYP2C19 enzyme, pH 7.4, probe EOMCC (0.01 mM)
# Sequence of CYP2C19 (P33261 whole entry, species assumed): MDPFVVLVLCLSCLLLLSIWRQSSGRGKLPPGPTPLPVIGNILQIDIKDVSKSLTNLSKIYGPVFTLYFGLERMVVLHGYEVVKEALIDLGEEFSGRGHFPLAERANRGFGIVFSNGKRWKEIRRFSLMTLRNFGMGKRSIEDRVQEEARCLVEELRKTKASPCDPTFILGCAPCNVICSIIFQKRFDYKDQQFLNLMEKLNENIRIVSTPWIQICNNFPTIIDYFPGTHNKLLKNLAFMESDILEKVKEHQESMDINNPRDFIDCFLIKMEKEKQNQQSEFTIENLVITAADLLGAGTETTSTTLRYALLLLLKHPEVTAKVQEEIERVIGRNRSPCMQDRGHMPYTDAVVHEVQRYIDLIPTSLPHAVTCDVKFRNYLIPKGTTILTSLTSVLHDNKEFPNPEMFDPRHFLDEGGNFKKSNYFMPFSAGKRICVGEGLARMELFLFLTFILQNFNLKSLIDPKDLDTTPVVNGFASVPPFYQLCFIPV
# CYP3A4 = CYP3A4 (Homo sapiens, UniProt P08684); assay: in vitro; settings: CYP3A4 enzyme, pH 7.4, probe BOMCC (0.01 mM)
# Sequence of CYP3A4 (P08684 whole entry, species assumed): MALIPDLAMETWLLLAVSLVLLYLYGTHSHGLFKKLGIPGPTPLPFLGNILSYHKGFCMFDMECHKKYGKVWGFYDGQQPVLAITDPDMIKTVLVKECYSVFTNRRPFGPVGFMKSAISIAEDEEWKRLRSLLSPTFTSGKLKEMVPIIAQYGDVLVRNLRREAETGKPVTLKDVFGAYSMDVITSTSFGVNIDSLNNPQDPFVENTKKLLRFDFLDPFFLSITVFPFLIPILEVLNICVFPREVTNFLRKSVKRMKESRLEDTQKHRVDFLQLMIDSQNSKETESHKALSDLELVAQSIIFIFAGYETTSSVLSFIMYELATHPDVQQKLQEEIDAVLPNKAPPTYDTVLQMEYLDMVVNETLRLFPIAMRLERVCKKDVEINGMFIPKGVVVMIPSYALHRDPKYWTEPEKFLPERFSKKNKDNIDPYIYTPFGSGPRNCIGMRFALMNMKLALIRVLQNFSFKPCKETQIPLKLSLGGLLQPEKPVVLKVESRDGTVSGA
"inhibition at 30 min, 1 µM (CYP2C8)","inhibition at 30 min, 10 µM (CYP2C8)","inhibition at 30 min, 1 µM (CYP2D6)","inhibition at 30 min, 10 µM (CYP2D6)","inhibition at 30 min, 1 µM (CYP1A2)","inhibition at 30 min, 10 µM (CYP1A2)","inhibition at 30 min, 1 µM (CYP2C9)","inhibition at 30 min, 10 µM (CYP2C9)","inhibition at 30 min, 1 µM (CYP2C19)","inhibition at 30 min, 10 µM (CYP2C19)","inhibition at 30 min, 1 µM (CYP3A4)","inhibition at 30 min, 10 µM (CYP3A4)",SMILES,half-life at 1 µM [1],half-life at 1 µM [2],IC50 (Wee1 protein)
,,,,,,,,,,,,C=CCn1c(=O)c2cnc(Nc3ccc(N4CC5CC(C4)N5C)cc3)nc2n1-c1cccc(C(C)(C)O)n1 [Compound 27],1.75 h,0.55 h,5 to 10 nM
7.1%,17.3%,3.4%,1.5%,20.2%,17.5%,15.4%,6.4%,25.4%,71.9%,-14%,-32.9%,C=CCn1c(=O)c2cnc(Nc3ccc(N4CCN(C)CC4)cc3)nc2n1-c1cccc(C(C)(C)O)n1 [AZD1775],,,
